The text below walks through data of patent publication US10710968B2 (Hadasit Medical Research Services and Development Ltd., priority 2016, dated 2020).

Data set [1] relates to NCI-H3255 cells (EGFR L858R point mutation). In words: Cell growth inhibition, methylene blue assay, NCI-H3255. The conditions noted are these: NCI-H3255, Activating (L858R point mutation), 72 hours, mean±SD. The data set is classed as cell-based, human. The procedure:
(§1) NCI-H1975 and HCC827 were obtained from the ATCC. QG56 cells were obtained from Prof. Alexander Levitzki's lab, The Silberman Institute of Life Sciences, the Hebrew University, Jerusalem. […] All media were supplemented with fetal bovine serum (FBS, (10%)) and antibiotics (penicillin 10^4 units/L, streptomycin 10 mg/L) (BI, Israel).
(§2) Four human NSCLC cell lines were selected: QG56, HCC827, NCI-H3255 and NCI-H1975. These cell lines harbor the prevailing EGFR variants identified in NSCLC patients, including the wild-type receptor (QG56 cells) and the two most common activating mutations in the TK domain of the receptor: an exon 19 deletion (ΔE746-A750) (HCC827 cells) and the L858R point mutation in exon 21 (NCI-H3255). NCI-H1975 cells were also selected, since on top of the activating L858R point mutation, these cells harbor the secondary T790M mutation in exon 20, which confers resistance to TKI-therapy.
(§3) The median inhibitory concentration (IC50) of the tested compound for cell growth of each cell line was then calculated using GraphPad Prism 5.0 software. Results are presented as mean±SD.

Data set [2] deals with NCI-H1975 cells (EGFR L858R + T790M). In words: Cell growth inhibition, methylene blue assay, NCI-H1975. The data set is classed as cell-based, human. The conditions noted are these: NCI-H1975, Double (L858R + T790M), 72 hours, mean±SD. The procedure:
as §1, §2, §3

The subject of a further data set is QG56 cells (wt EGFR). The experiment in a line: Cell growth inhibition, methylene blue assay, QG56. It counts as cell-based, human. The conditions noted are these: QG56, None (wt EGFR), 72 hours, mean±SD. The method, then: as §1, §2, §3
The subject of the next data set is QG56 tumor. The experiment in a line: PET/CT scans of QG56 tumor-bearing mice. It counts as in vivo. The conditions noted are these: QG56 tumors, 60 minutes after i.v. injection. The procedure: (§4) Dynamic (1 hour) PET scans are performed using Inveon™ MM PET-CT small animal-dedicated scanner (Siemens Medical Solutions, USA). […] Using image analysis tools, volume of interests (VOIs) are drawn for selected organs based on the PET and CT images, and the kinetics of radioactivity distribution in vivo (time-activity curves, (TACs)) is determined for these organs, and primarily for the NSCLC xenografts. The standardized uptake values (SUVs) of each radiolabeled compound in tumors are calculated and compared between the different tumors.
(§5) In additional PET/CT studies, five QG56 (erlotinib-insensitive) and five HCC827 (erlotinib-sensitive) tumor-bearing mice were scanned for 60 minutes following i.v. injection of [^18F]6-O-FEE (7.14±0.7 Mbq).

Data set [3] is described as follows: Stability of the final formulation in solution (radio-TLC and HPLC). The data set is classed as physicochemical. The conditions noted are these: final formulation (ethanol/isotonic saline). The procedure:
In brief, a solution of ethylene 1,2-(bis) tosylate (11-13 mg) dissolved in anhydrous MeCN ([…]) was added to the dried [^18F]fluoride. The reaction is heated to 120° C. while stirring for 10 minutes, and the reaction mixture was thereafter cooled to 50° C. The ^18F-fluoroethyltosylate was then further diluted with 1 mL MeCN and transferred to a second reactor that was pre-stirred and heated under argon stream for 5 minutes with 9-11 mg of desmethylerlotinib dissolved in 0.6 mL of DMF and 6-8 mg of NaH. […]
The radiochemical purity was determined using analytical HPLC equipped with C18 analytical Luna column (5 μm, 4.6 mm>250 mm, Luna, phenomenex, Torrance, Calif., USA), with a variable wavelength UV detector operated at λ=254 nm, and a radioactivity detector with NaI crystals, and was routinely greater than 98%. […] Solvent residues were analyzed by GC, using a 1 μL injection of the final product, and compared to a standard solution containing 0.04% acetonitrile and 0.5% acetone. […]

In another data set the test system is HCC827 tumor. The experiment in a line: PET/CT scans of HCC827 tumor-bearing mice. It counts as in vivo. The method, then:
as §4, §5

Broadly, the IC50 is the concentration that inhibits the measured activity by half. For the compound `C#Cc1cccc(Nc2ncnc3cc(OCCOC)c(OCCF)cc23)c1` [6-O-FEE, 6-O-fluoroethylerlotinib], the results for the IC50 (in data set [1]; in data set [2]; in the data set on QG56 cells (wt EGFR)) were 0.033 ± 0.04 µM, 3.6 ± 1 µM and 14.4 ± 5 µM, respectively.
As to `C#Cc1cccc(Nc2ncnc3cc(OCCOC)c(OCC[18F])cc23)c1` [[^18F]6-O-FEE, [^18F]6-fluoroethylerlotinib], the “tumor SUV” value with QG56 tumor came out at 0.28; in the data set on HCC827 tumor (HCC827 tumor-bearing mice, erlotinib in excess (6.1±0.3 mg/kg) 10 minutes prior to injection), 0.414; in the data set with HCC827 tumor (HCC827 tumor-bearing mice, without erlotinib pre-administration (blocking comparison)), 0.704; with HCC827 tumor (HCC827 tumors, 60 minutes after i.v. injection, mice), 0.70. Besides, the stability in solution entry in data set [3] is given as “remained stable in solution for over four hours”. Further, the “higher uptake in HCC827 tumors compared to QG56 tumors” value in the data set with HCC827 tumor (60 minutes after i.v. injection, mice, p=0.0072) is recorded as 2.5 fold. For the same compound, in the data set with HCC827 tumor (HCC827 tumor-bearing mice, erlotinib 6.1±0.3 mg/kg 10 minutes prior, p=0.018), the “reduction of tumor SUV by erlotinib in excess” value was “about 40%”. Also, the “higher uptake in HCC827 tumor compared to NCI-H1975 tumor” value with HCC827 tumor (preliminary PET/CT study, i.v. injection, 60 minutes scan, mice) was 2.5-3 fold.
